According to ChEMBL document CHEMBL4665820, “Discovery of VU6027459: A First-in-Class Selective and CNS Penetrant mGlu Positive Allosteric Modulator Tool Compound” (ACS Med Chem Lett, 2020):
pEC50, pIC50, pKi: −log10 of the molar value. One block for each compound: values may come before it.

Experiments:
[1] = target: Metabotropic glutamate receptor 7 (Rattus norvegicus) (UniProt P35400); test: (§1) Positive allosteric modulation of rat mGlu7 receptor expressed in HEK293 cells co-expressing Gai5 assessed as potentiation of L-AP4-induced calcium mobilization preincubated for 140 secs and treated with EC20 L-AP4 for 125 secs and followed by subsequent addition of EC80 L-AP4 by Fluo-4-AM dye based fluorescence assay relative to maximal induction of L-AP4; type: functional, cell-based; details: filed as positive allosteric modulator, time 140.0 sec
Sequence of Metabotropic glutamate receptor 7 (Rattus norvegicus) (P35400 whole entry): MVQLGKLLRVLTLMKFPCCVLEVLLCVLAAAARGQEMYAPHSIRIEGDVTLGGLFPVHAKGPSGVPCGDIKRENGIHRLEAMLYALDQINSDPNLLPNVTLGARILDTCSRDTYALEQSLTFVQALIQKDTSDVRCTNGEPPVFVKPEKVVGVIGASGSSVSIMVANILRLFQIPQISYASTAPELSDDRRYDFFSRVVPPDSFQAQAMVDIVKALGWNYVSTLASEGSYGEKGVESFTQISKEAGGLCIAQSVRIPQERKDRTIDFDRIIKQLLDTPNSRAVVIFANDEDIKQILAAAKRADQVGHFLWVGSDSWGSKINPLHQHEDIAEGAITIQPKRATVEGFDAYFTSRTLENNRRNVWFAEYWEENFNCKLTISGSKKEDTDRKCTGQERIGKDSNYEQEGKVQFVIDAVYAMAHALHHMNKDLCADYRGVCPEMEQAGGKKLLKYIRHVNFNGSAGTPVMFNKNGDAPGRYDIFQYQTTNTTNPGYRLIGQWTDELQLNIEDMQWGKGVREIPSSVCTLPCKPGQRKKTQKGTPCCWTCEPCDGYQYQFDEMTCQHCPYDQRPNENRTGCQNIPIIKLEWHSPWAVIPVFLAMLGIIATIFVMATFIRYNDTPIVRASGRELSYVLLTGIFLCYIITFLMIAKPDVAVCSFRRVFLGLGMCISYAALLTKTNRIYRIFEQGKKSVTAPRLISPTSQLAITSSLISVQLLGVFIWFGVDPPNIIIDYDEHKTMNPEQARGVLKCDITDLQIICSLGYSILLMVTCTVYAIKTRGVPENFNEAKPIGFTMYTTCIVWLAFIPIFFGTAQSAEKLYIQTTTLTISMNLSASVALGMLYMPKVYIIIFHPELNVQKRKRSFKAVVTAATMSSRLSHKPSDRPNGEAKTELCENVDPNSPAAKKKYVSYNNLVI

[2] = target: T1, Metabotropic glutamate receptor 7 (Rattus norvegicus, UniProt P35400); test: as §1, with “assay” for “assay relative to maximal induction of L-AP4”; type: functional, cell-based; details: for pEC50: read-out: EC50
T1 sequence (P35400 whole entry): as above

[3] = target: Sodium-dependent dopamine transporter (Homo sapiens, UniProt Q01959); test: Displacement of […] from recombinant human Dopamine transporter after 120 mins by scintillation counting analysis; type: ADME
Sequence of Sodium-dependent dopamine transporter (Q01959 whole entry): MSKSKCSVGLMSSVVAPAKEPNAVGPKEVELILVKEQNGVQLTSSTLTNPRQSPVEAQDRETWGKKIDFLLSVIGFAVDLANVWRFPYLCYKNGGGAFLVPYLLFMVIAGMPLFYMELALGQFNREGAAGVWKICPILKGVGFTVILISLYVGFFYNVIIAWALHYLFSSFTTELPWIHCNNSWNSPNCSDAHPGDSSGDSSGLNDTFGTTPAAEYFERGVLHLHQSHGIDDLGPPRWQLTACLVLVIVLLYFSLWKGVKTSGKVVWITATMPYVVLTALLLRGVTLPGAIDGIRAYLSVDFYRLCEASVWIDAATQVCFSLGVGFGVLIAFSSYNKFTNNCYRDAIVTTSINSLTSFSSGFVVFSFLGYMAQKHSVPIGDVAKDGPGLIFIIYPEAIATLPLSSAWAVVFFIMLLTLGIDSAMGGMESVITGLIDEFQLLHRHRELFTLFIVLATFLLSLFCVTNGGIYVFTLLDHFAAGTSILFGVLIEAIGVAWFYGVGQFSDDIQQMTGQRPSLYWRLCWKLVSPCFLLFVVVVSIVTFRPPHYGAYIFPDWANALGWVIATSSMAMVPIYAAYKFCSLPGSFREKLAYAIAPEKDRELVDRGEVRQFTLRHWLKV

[4] = target: Metabotropic glutamate receptor 7 (Rattus norvegicus) (UniProt P35400); test: Positive allosteric modulation of rat mGlu7 expressed in HEK293 cells co- expressing GIRK assessed as potentiation of L-AP4-induced thallium flux incubated for 140 sec by FluoZin2-AM dye based fluorescence analysis relative to maximal induction of L-AP4; type: cell-based; details: filed as positive allosteric modulator
[5] = Plasma to brain permeability coefficient, Kp of the compound in rat; type: ADME, cell-free
[6] = target: T2, Metabotropic glutamate receptor 8 (Homo sapiens, UniProt O00222); test: Negative allosteric modulation of mGlu8 receptor (unknown origin)
[7] = target: T3, Metabotropic glutamate receptor 4 (Homo sapiens, UniProt Q14833); test: Negative allosteric modulation of mGlu4 receptor (unknown origin)
[8] = target: T4, Metabotropic glutamate receptor 1 (Homo sapiens, UniProt Q13255); test: Negative allosteric modulation of mGlu1 receptor (unknown origin)
T4 sequence (Q13255 whole entry): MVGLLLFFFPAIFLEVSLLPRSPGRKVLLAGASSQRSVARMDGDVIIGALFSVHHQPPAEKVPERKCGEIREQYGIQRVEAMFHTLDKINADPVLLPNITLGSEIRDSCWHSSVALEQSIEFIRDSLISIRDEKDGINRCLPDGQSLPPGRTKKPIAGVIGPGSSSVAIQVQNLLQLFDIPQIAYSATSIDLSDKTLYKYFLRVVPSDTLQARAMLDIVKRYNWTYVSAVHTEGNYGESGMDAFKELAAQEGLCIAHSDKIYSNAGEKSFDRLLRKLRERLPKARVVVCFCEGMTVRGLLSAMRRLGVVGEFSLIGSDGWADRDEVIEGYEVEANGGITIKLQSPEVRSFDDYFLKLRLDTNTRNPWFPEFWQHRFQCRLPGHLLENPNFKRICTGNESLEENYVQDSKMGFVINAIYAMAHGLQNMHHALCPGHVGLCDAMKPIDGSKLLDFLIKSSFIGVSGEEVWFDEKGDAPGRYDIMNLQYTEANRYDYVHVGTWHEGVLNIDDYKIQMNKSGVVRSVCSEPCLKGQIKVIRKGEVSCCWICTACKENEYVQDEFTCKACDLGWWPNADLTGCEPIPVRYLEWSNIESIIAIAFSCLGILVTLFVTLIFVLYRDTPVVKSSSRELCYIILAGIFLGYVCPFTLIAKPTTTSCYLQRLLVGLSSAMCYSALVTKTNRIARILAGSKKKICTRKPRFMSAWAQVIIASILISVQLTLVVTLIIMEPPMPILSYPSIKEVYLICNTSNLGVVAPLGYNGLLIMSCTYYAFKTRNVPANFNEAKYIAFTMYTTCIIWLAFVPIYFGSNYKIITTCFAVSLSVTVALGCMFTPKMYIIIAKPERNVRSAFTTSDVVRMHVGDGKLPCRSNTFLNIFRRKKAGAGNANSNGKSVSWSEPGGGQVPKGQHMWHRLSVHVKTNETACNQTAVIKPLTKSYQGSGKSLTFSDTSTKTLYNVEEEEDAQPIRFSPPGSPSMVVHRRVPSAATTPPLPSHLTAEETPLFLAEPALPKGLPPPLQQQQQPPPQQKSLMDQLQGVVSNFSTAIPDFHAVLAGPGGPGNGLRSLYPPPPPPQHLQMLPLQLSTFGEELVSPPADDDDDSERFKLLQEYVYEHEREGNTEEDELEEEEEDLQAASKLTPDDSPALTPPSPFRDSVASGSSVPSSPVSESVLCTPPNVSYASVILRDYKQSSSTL

[9] = target: T5, Metabotropic glutamate receptor 5 (Homo sapiens, UniProt P41594); test: Negative allosteric modulation of mGlu5 receptor (unknown origin)
T5 sequence (P41594 whole entry): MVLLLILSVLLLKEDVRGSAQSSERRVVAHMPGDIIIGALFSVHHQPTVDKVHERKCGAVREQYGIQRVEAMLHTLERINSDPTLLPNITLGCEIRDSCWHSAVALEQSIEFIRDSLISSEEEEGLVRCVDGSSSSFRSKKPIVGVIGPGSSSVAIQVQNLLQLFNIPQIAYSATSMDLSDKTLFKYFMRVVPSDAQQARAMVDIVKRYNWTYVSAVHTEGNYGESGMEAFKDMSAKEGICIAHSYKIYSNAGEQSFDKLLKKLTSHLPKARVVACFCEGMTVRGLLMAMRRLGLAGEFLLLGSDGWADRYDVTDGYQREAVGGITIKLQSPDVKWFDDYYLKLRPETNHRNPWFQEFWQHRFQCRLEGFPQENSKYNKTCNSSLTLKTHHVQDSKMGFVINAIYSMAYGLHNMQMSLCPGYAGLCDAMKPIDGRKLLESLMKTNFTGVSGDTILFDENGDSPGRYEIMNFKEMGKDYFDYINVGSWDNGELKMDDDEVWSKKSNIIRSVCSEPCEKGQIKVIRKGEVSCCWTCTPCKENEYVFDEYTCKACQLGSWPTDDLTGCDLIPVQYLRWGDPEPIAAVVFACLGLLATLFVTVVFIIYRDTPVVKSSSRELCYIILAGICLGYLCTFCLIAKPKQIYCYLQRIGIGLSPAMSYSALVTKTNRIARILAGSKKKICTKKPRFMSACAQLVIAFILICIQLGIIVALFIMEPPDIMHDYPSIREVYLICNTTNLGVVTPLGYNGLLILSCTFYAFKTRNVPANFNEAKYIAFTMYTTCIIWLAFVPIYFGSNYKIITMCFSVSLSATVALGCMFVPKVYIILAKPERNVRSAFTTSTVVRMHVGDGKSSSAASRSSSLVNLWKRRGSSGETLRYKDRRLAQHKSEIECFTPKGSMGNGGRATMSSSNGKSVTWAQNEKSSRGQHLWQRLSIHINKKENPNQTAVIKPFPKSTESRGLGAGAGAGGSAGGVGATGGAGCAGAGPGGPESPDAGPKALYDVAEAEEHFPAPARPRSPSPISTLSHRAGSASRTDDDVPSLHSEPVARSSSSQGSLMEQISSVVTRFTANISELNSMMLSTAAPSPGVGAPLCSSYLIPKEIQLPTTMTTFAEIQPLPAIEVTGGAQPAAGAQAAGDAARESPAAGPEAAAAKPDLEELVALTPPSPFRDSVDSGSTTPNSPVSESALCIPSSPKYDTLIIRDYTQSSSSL

[10] = target: T6, Metabotropic glutamate receptor 3 (Homo sapiens, UniProt Q14832); test: Negative allosteric modulation of mGlu3 receptor (unknown origin)
[11] = Unbound plasma to brain permeability coefficient, Kp of the compound in rat; type: ADME, cell-free; details: read-out: K(p,uu,brain)
[12] = target: T7, Metabotropic glutamate receptor 2 (Homo sapiens, UniProt Q14416); test: Negative allosteric modulation of mGlu2 receptor (unknown origin)
T7 sequence (Q14416 whole entry): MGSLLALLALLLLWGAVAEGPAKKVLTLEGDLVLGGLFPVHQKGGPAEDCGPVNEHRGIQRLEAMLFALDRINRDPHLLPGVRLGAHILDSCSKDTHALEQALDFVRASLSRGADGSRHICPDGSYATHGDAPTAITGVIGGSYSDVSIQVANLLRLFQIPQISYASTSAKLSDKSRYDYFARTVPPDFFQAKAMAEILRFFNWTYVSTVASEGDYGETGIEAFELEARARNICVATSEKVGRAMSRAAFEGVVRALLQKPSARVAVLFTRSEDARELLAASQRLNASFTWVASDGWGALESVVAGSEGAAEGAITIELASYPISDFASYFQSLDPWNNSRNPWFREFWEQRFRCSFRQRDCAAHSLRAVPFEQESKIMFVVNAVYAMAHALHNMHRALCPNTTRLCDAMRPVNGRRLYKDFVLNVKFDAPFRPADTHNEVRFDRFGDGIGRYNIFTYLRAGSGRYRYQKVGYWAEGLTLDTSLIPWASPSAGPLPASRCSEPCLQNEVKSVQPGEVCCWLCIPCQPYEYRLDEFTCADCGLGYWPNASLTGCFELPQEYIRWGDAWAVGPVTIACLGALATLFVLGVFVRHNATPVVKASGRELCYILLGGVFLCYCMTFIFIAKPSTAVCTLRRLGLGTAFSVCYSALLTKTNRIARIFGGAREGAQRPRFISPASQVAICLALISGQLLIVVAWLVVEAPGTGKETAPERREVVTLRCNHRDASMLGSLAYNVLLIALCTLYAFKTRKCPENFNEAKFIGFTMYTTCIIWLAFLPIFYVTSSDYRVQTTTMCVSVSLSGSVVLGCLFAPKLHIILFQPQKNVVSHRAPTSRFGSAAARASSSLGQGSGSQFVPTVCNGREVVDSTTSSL

[13] = Fraction unbound in mouse brain at 5 uM incubated for 6 hrs by equilibrium dialysis based LC-MS/MS analysis; type: ADME, tissue-based
[14] = Fraction unbound in rat brain at 5 uM incubated for 6 hrs by equilibrium dialysis based LC-MS/MS analysis; type: ADME, tissue-based
[15] = Hepatic intrinsic clearance in rat liver microsomes at 1 uM preincubated for 5 mins followed by NADPH addition and measured up to 45 mins by LC-MS/MS analysis; type: ADME, Microsome; details: read-out: CLH
[16] = target: T1, Metabotropic glutamate receptor 7; test: Positive allosteric modulation of rat mGlu7 expressed in HEK293 cells co- expressing GIRK assessed as potentiation of L-AP4-induced thallium flux incubated for 140 sec by FluoZin2-AM dye based fluorescence analysis; type: cell-based
[17] = Fraction unbound in mouse plasma at 5 uM incubated for 4 hrs by equilibrium dialysis based LC-MS/MS analysis; type: ADME, cell-free
[18] = Hepatic intrinsic clearance in mouse liver microsomes at 1 uM preincubated for 5 mins followed by NADPH addition and measured up to 45 mins by LC-MS/MS analysis; type: ADME, Microsome; details: read-out: CLH
[19] = Unbound plasma to brain permeability coefficient, Kp of the compound in Sprague-Dawley rat at 0.2 mg/kg, iv measured after 0.25 hrs by LC-MS/MS analysis; type: ADME, organism-based; details: read-out: K(p,uu,brain)
[20] = Fraction unbound in rat plasma at 5 uM incubated for 4 hrs by equilibrium dialysis based LC-MS/MS analysis; type: ADME, cell-free
[21] = Plasma to brain permeability coefficient, Kp of the compound in Sprague-Dawley rat at 0.2 mg/kg, iv measured after 0.25 hrs by LC-MS/MS analysis; type: ADME, organism-based
[22] = target: T6, Metabotropic glutamate receptor 3; test: Positive allosteric modulation of mGlu3 receptor (unknown origin)
[23] = target: T3, Metabotropic glutamate receptor 4; test: Positive allosteric modulation of mGlu4 receptor (unknown origin)
[24] = target: Sigma non-opioid intracellular receptor 1 (Homo sapiens, UniProt Q99720); test: Displacement of [3H]-Pentazocine from human recombinant sigma 1 receptor incubated for 120 mins by scintillation counting analysis relative to control
[25] = target: dopamine transporter (DAT) (Homo sapiens, UniProt Q01959); test: Displacement of […] from recombinant human Dopamine transporter at 10 uM after 120 mins by scintillation counting analysis relative to control; type: ADME
Sequence of dopamine transporter (DAT) (Q01959 whole entry): as the sequence (Q01959 whole entry) above

[26] = target: T2, Metabotropic glutamate receptor 8; test: Positive allosteric modulation of mGlu8 receptor (unknown origin)
[27] = target: T7, Metabotropic glutamate receptor 2; test: Positive allosteric modulation of mGlu2 receptor (unknown origin)
[28] = Oral bioavailability in Sprague-Dawley rat at 10 mg/kg measured upto 24 hrs by LC-MS/MS analysis; type: ADME, organism-based; details: in vivo
[29] = Plasma to brain permeability coefficient, Kp of the compound in CD-1 mouse at 10 mg/kg, ip measured after 0.5 hrs by LC-MS/MS analysis; type: ADME, organism-based
[30] = target: T5, Metabotropic glutamate receptor 5; test: Positive allosteric modulation of mGlu5 receptor (unknown origin)
[31] = Half-life in Sprague-Dawley rat at 1 mg/kg, iv and 10 mg/kg, po measured up to 24 hrs by LC-MS/MS analysis; type: ADME, organism-based; details: in vivo
[32] = Unbound plasma to brain permeability coefficient, Kp of the compound in CD-1 mouse at 10 mg/kg, ip measured after 0.5 hrs by LC-MS/MS analysis; type: ADME, organism-based; details: read-out: K(p,uu,brain)
[33] = target: T4, Metabotropic glutamate receptor 1; test: Positive allosteric modulation of mGlu1 receptor (unknown origin)
hERG (KCNH2) = hERG (KCNH2) (Homo sapiens, UniProt Q12809); test: Displacement of [3H]-Astemizole from human recombinant full length ERG channel at 10 uM incubated for 60 mins by scintillation counting analysis relative to control; details: probe [3H]-astemizole

Activity [1]: 24%
pEC50 [2]: < 5.00
SMILES: N#Cc1cnc2c(N3CCCCC3)cccc2c1N1CCN(c2ccccc2F)CC1

Activity [1]: 98%
pEC50 [2]: 5.42
SMILES: N#Cc1cnc2c(OC(F)F)cc(F)cc2c1N1CCN(c2ccccc2F)CC1

pEC50 [2]: 5.89
SMILES: N#Cc1cnc2c(OCC3CCOC3)cccc2c1N1CCN(c2ccccc2F)CC1 (racemic)

Activity [1]: 71%
pEC50 [2]: 6.29
SMILES: N#Cc1cnc2c(OC3CCOC3)cc(F)cc2c1N1CCN(c2ccccc2F)CC1 (stereo unspecified)

Activity [1]: 70%
SMILES: N#Cc1cnc2c(OC3CCOC3)cccc2c1N1CCN(c2ccccc2F)CC1 (single isomer, unassigned; (-))

Activity [1]: 35%
pIC50 [3]: 5.40
pEC50 [2]: < 5.00
SMILES: COc1ccc(F)c2c(N3CCN(c4ccccc4F)CC3)c(C#N)cnc12

pEC50 [2]: 5.89
SMILES: N#Cc1cnc2c(OCC3CCOC3)cccc2c1N1CCN(c2ccccc2F)CC1 (stereo in doubt; (-)-20f) [listing 1 of 2 here]

Activity [1]: 89%
SMILES: N#Cc1cnc2c(OCC3CCOC3)cccc2c1N1CCN(c2ccccc2F)CC1 (stereo in doubt; (-)-20f) [listing 2 of 2 here]

pEC50 [2]: 5.82
SMILES: [2H]C([2H])([2H])Oc1cccc2c(N3CCN(c4ccccc4F)CC3)c(C#N)cnc12

Activity [4]: 62.2%
Activity [1]: 74%
SMILES: N#Cc1cnc2c(OC3CCOC3)cccc2c1N1CCN(c2ccccc2F)CC1 (racemic) [listing 1 of 2 here]

Kp [5]: 4.7
pIC50 [6]: < 4.52
pIC50 [7]: < 4.52
pIC50 [8]: < 4.52
pIC50 [9]: < 4.52
pIC50 [10]: < 4.52
Kp uu [11]: 0.96
pIC50 [12]: < 4.52
SMILES: CCOC(=O)c1cnc2c(OC)cccc2c1N1CCN(c2ccccc2F)CC1

Activity [1]: 81%
pEC50 [2]: 5.17
SMILES: N#Cc1cnc2c(-n3ccnc3)cccc2c1N1CCN(c2ccccc2F)CC1

Activity [1]: 23%
pEC50 [2]: < 5.00
SMILES: N#Cc1cnc2c(OC3CCC3)cc(F)cc2c1N1CCN(c2ccccc2F)CC1

fraction unbound at 6 h, 5 µM [13]: 0.001
fraction unbound at 6 h, 5 µM [14]: 0.001
CLint scaled at 1 µM [15]: 50.7 mL/min/kg
pEC50 [16]: 6.12
Activity [4]: 54.5%
fraction unbound at 4 h, 5 µM [17]: 0.004
CLint scaled at 1 µM [18]: 76.2 mL/min/kg
Kp uu at 0.25 h [19]: 1
Activity [1]: 82%
pKi [3]: < 5.00
fraction unbound at 4 h, 5 µM [20]: 0.005
Kp at 0.25 h [21]: 4.99
pEC50 [2]: 6.16
SMILES: CC(C)Oc1cc(F)cc2c(N3CCN(c4ccccc4F)CC3)c(C#N)cnc12

fraction unbound at 6 h, 5 µM [13]: 0.01
fraction unbound at 6 h, 5 µM [14]: 0.006
CLint scaled at 1 µM [15]: 54 mL/min/kg
pEC50 [16]: 6.00
fraction unbound at 4 h, 5 µM [17]: 0.02
CLint scaled at 1 µM [18]: 75.8 mL/min/kg
Kp uu at 0.25 h [19]: 0.79
pKi [3]: < 5.00
fraction unbound at 4 h, 5 µM [20]: 0.03
Kp at 0.25 h [21]: 4.36
pEC50 [2]: 5.89
SMILES: N#Cc1cnc2c(OC3CCOC3)cccc2c1N1CCN(c2ccccc2F)CC1 (racemic) [listing 2 of 2 here]

fraction unbound at 6 h, 5 µM [13]: 0.001
fraction unbound at 6 h, 5 µM [14]: 0.002
pEC50 [22]: < 4.52
pEC50 [23]: < 4.52
CLint scaled at 1 µM [15]: 46.9 mL/min/kg
pEC50 [16]: 6.00
pIC50 [24]: 5.46
fraction unbound at 4 h, 5 µM [17]: 0.01
CLint scaled at 1 µM [18]: 84.4 mL/min/kg
inhibition at 2 h, 10 µM [25]: < 50%
pEC50 [26]: < 5.00
Kp uu at 0.25 h [19]: 0.96
pEC50 [27]: < 4.52
pKi [3]: < 5.00
bioavailability [28]: 69.5%
Kp at 0.5 h [29]: 2.74
pEC50 [30]: < 4.52
half-life [31]: 7.5 h
fraction unbound at 4 h, 5 µM [20]: 0.01
Kp uu at 0.5 h [32]: 0.23
Kp at 0.25 h [21]: 4.78
pEC50 [2]: 5.96
EC50 ([2]; read-out: pEC50 (converted)): 1.58 µM
pEC50 [33]: < 4.52
SMILES: [2H]C([2H])([2H])Oc1cc(F)cc2c(N3CCN(c4ccccc4F)CC3)c(C#N)cnc12
inhibition at 1 h, 10 µM (hERG (KCNH2)): < 50%

pEC50 [2]: 5.96
SMILES: N#Cc1cnc2c(OC3CCOC3)cccc2c1N1CCN(c2ccccc2F)CC1 (single isomer, unassigned; (+))

Activity [1]: 53%
pIC50 [3]: 5.52
pEC50 [2]: 5.74
SMILES: COc1c(F)ccc2c(N3CCN(c4ccccc4F)CC3)c(C#N)cnc12
